Data reported in patent publication US20240350597A1, “PROTEASE INHIBITORS” (University College Dublin, priority 2023, published 2024).

What was measured:
chymotrypsin = test: Protease inhibition assay, chymotrypsin; type: biochemical; settings: 10 min preincubation, A1AT compared with B3-TMP
Procedure: (§1) Proteases were incubated with a 1:5 molar excess of serpin and residual activity was determined by cleavage of fluorescent substrates. All assays were carried out at room temperature in 96-well plates in a total volume of 100 μL. Residual proteolytic activity was measured using a SpectraMax M3 Microplate Reader (Molecular Devices, Inc), using the appropriate buffer and synthetic fluorogenic peptide substrate: Cathepsin L, Z-FR-AMC (10 μM), 50 mM Na-Acetate, 100 mM NaCl, 1 mM EDTA, pH 5.5; Chymotrypsin, Z-AAPF-AMC (5 μM), PBS, 1 mg/ml BSA; Elastase, Met-O-Suc-AAPV-AMC (10 μM), 50 mM Tris, 120 mM NaCl, pH 8.0, 1 mg/ml BSA; Furin, Boc-RVRR-AMC (50 μM) 20 mM Tris, 1 mM CaCl2), 0.5% Brij-35, pH 9; TMPRSS2, Boc-QAR-AMC (80 μM), PBS; Trypsin, Z-FR-AMC (10 μM), 50 mM Tris, 0.2 mM DTT, 1 mg/ml BSA. The excitation and emission wavelengths used were 380 nm and 460 nm respectively. All assays were performed in triplicate.
(§2) As an indication of target protease selectivity, both serpins were tested with mammalian trypsin, chymotrypsin and elastase, in addition to TMPRSS2. A short preincubation time of 10 minutes prior to addition of fluorogenic substrate was used and residual activity determined.

mammalian trypsin = test: Protease inhibition assay, trypsin; type: biochemical; settings: 10 min preincubation, A1AT compared with B3-TMP
Procedure: as §1, §2

TMPRSS2 [1] = target: T1, TMPRSS2 (Homo sapiens, UniProt O15393); type: biochemical; settings: 5:1 serpin:protease ratio, 10 min incubation, substrate Boc-QAR-AMC
T1 construct: purchased Cusabio Technology
T1 sequence (O15393 whole entry): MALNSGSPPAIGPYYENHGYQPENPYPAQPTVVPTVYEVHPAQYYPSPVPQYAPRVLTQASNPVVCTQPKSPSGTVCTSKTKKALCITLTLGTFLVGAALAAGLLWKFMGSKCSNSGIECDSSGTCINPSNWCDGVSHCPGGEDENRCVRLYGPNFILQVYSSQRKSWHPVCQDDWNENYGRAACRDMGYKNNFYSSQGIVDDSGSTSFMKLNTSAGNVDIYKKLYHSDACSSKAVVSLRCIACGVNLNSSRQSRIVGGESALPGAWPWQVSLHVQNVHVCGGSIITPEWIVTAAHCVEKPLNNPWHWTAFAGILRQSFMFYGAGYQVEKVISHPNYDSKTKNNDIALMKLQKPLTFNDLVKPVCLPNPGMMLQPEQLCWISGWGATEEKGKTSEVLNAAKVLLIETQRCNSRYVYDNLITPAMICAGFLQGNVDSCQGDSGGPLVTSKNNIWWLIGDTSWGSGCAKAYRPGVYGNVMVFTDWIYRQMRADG

pancreatic elastase = test: Protease inhibition assay, elastase; type: biochemical; settings: 10 min preincubation, A1AT compared with B3-TMP
Procedure: as §1, §2

TMPRSS2 [2] = target: T1, TMPRSS2; test: Kinetic analysis of TMPRSS2 inhibition under pseudo first-order conditions; type: biochemical; settings: room temperature, TMPRSS2 0.1 μM
Procedure: For kinetic analysis of TMPRSS2 inhibition, second order inhibition rate constants were determined under pseudo first-order conditions using a range of serpin concentrations, and with TMPRSS2 buffer and substrate detailed above. Reactions were performed at room temperature and residual activity was determined at intervals over a 10 min incubation with a molar excess of serpin over protease. Concentration ranges were 0.12 to 0.44 μM for B3-TMP and 1.0 to 4 μM for A1AT. The apparent first order rate constant kobs for each concentration was calculated from the slope of the natural log of residual activity over time (−kobs). These values were plotted against inhibitor concentration and linear regression analysis of this plot gave the second order inhibition rate constant k2, with standard error determined.

[3] = tested on: SARS-CoV-2 Spike pseudoparticles; type: cell-based; settings: 12.5 μM, A549-ACE2-TMPRSS2 cells

Substance: alpha-1-antitrypsin [A1AT]
- chymotrypsin inhibition (in words) (chymotrypsin): more effective inhibitor
- trypsin inhibition (in words) (mammalian trypsin): more effective inhibitor
- inhibition of TMPRSS2 (TMPRSS2 [1]): 15%
- pancreatic elastase inhibition (in words) (pancreatic elastase): more effective inhibitor
- second order inhibition rate constant k2 of TMPRSS2 inhibition (TMPRSS2 [2]): (4.8±0.55)×10^2 M^−1 s^−1
- inhibition of pseudoparticle entry [3]: 40%
